From ChEMBL document CHEMBL1201862, “PubChem BioAssay data set” (2004)
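A five-concentration, 48-hour dose response in 96-well plates underlies each endpoint, interpolated linearly between surrounding concentrations. GI50: concentration for 50% inhibition of growth.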 Active and inactive are the calls of the source. Cut-off read from the data, not from the text of the source: active = GI50 up to about 1.1 µM and inactive = higher.

Legend:
Assay in all cases: growth of human tumour cells (NCI), 48 h
786-0 = system: 786-0
ACHN = system: ACHN
CCRF-CEM = system: CCRF-CEM
HCC 2998 = system: HCC 2998
HCT-116 = system: HCT-116
HOP-92 = system: HOP-92
LOX IMVI = system: LOX IMVI
MOLT-4 = system: MOLT-4
OVCAR-3 = system: OVCAR-3
OVCAR-5 = system: OVCAR-5
SF-268 = system: SF-268
SF-295 = system: SF-295
SNB-19 = system: SNB-19
SNB-75 = system: SNB-75
K562 = system: K562
M14 = system: M14

Measured: GI50

C/N=C1\CC2c3cc(OC)c(OC)cc3CCN2C2=C1C(=O)CC(C)(C)C2 (configuration not stated)
inactive: 786-0 > 100 µM | ACHN > 100 µM | CCRF-CEM > 100 µM | HCC 2998 > 100 µM | HCT-116 > 100 µM | HOP-92 > 100 µM | LOX IMVI > 100 µM | MOLT-4 > 100 µM | OVCAR-3 > 100 µM | OVCAR-5 > 100 µM | SF-268 > 100 µM | SF-295 > 100 µM | SNB-19 > 100 µM | SNB-75 > 100 µM

O=c1/c(=C/c2ccccc2F)sc2nc3ccccc3n12
inactive: 786-0 > 100 µM | ACHN > 100 µM | CCRF-CEM > 100 µM | HCC 2998 > 100 µM | HCT-116 > 100 µM | HOP-92 > 100 µM | K562 > 100 µM | LOX IMVI 91 µM | M14 > 100 µM | MOLT-4 > 100 µM | OVCAR-3 > 100 µM | OVCAR-5 > 100 µM | SF-268 61.5 µM | SF-295 > 100 µM | SNB-19 > 100 µM | SNB-75 57.4 µM

Cc1ccn2c(c1)nc1nc3ccccc3nc12
inactive: 786-0 > 100 µM | ACHN 96.6 µM | CCRF-CEM > 100 µM | HOP-92 > 100 µM | K562 > 100 µM | LOX IMVI > 100 µM | M14 > 100 µM | OVCAR-3 > 100 µM | OVCAR-5 > 100 µM | SF-268 > 100 µM | SF-295 > 100 µM | SNB-19 > 100 µM | SNB-75 78.5 µM

CC1=NOC(=O)/C1=C/c1ccccc1O
inactive: 786-0 > 100 µM | ACHN > 100 µM | CCRF-CEM > 100 µM | HCC 2998 > 100 µM | HCT-116 > 100 µM | HOP-92 > 100 µM | K562 > 100 µM | LOX IMVI > 100 µM | M14 > 100 µM | MOLT-4 > 100 µM | OVCAR-3 > 100 µM | OVCAR-5 > 100 µM | SF-268 > 100 µM | SF-295 > 100 µM | SNB-19 > 100 µM | SNB-75 > 100 µM

C=CCNC(=S)N1CC(C)C(=O)Nc2cc(Cl)ccc21 (configuration not stated)
inactive: 786-0 > 100 µM | ACHN > 100 µM | HCT-116 > 100 µM | HOP-92 > 100 µM | K562 > 100 µM | M14 > 100 µM | MOLT-4 > 100 µM | OVCAR-5 > 100 µM | SF-268 > 100 µM | SF-295 > 100 µM | SNB-19 > 100 µM | SNB-75 > 100 µM

COc1cc(/C=C2\[C@H]3c4c(c(OC)c(C)c(OC)c4OC)C[C@@H](C(=O)N2Cc2ccccc2)N3C(=O)OCC(C)C)c(OC)c(C)c1OC
inactive: 786-0 > 100 µM | ACHN > 64.3 µM | CCRF-CEM 33.6 µM | HCC 2998 > 78.9 µM | HCT-116 12.1 µM | HOP-92 2.99 µM | K562 42.2 µM | LOX IMVI > 100 µM | M14 > 100 µM | MOLT-4 12.3 µM | OVCAR-3 > 41.4 µM | OVCAR-5 > 27.5 µM | SF-268 > 100 µM | SF-295 > 100 µM | SNB-19 > 100 µM | SNB-75 > 83.2 µM

Cc1ccc([N+](=O)[O-])cc1NC(=O)/C(=N/NC(=S)NN)C1SC(=S)NC1=O (configuration not stated)
inactive: 786-0 > 100 µM | ACHN > 100 µM | CCRF-CEM 40.2 µM | HCT-116 > 100 µM | HOP-92 > 100 µM | K562 > 100 µM | LOX IMVI > 100 µM | M14 > 100 µM | MOLT-4 78.9 µM | OVCAR-5 > 100 µM | SF-268 > 100 µM | SF-295 > 100 µM | SNB-19 > 100 µM | SNB-75 > 100 µM

NN/C(Cc1ccccc1)=N\NO
inactive: 786-0 > 100 µM | ACHN 69.3 µM | CCRF-CEM 39.8 µM | HCC 2998 > 100 µM | HCT-116 47.2 µM | HOP-92 > 100 µM | K562 85.7 µM | LOX IMVI 33.3 µM | M14 63.8 µM | MOLT-4 > 100 µM | OVCAR-3 > 100 µM | OVCAR-5 > 100 µM | SF-268 > 100 µM | SF-295 > 100 µM | SNB-19 > 100 µM | SNB-75 > 100 µM

O=C(CC1(O)C(=O)Nc2ccccc21)c1ccc(Cl)c(Cl)c1 (configuration not stated)
inactive: 786-0 > 100 µM | ACHN > 100 µM | CCRF-CEM 63.8 µM | HCC 2998 > 100 µM | HCT-116 > 100 µM | HOP-92 > 100 µM | K562 > 100 µM | LOX IMVI > 100 µM | M14 > 100 µM | MOLT-4 > 100 µM | OVCAR-5 > 100 µM | SF-268 > 100 µM | SF-295 > 100 µM | SNB-19 > 100 µM | SNB-75 > 100 µM

C=CCc1cc(OC)c2c(c1)C(OC)CC(c1ccc(OC)c(OC)c1)O2 (configuration not stated)
inactive: 786-0 > 100 µM | ACHN 71.9 µM | CCRF-CEM > 100 µM | HCC 2998 > 100 µM | HCT-116 > 100 µM | K562 61.8 µM | LOX IMVI > 100 µM | M14 78.2 µM | MOLT-4 45.5 µM | OVCAR-3 > 100 µM | OVCAR-5 > 100 µM | SF-268 73.8 µM | SF-295 > 100 µM | SNB-19 > 100 µM | SNB-75 54.8 µM

CCn1c2c(c3ccccc31)[C@@H](c1ccc(Cl)cc1)CC1C(=O)N(c3ccccc3)C(=O)C21 (some centres not stated)
inactive: 786-0 > 100 µM | ACHN 58.6 µM | CCRF-CEM 63.2 µM | HCC 2998 86.9 µM | HCT-116 37.6 µM | HOP-92 27.7 µM | K562 77.3 µM | LOX IMVI > 100 µM | M14 > 100 µM | MOLT-4 42.7 µM | OVCAR-3 55 µM | OVCAR-5 > 100 µM | SF-268 77.8 µM | SF-295 59.3 µM | SNB-19 > 100 µM | SNB-75 71.9 µM

Cc1nc(-c2nc(C)c(C(=O)NN(C)C)s2)sc1C(=O)NN(C)C
inactive: 786-0 30.7 µM | ACHN > 100 µM | CCRF-CEM 31.2 µM | HCC 2998 > 100 µM | HOP-92 > 100 µM | K562 32.6 µM | LOX IMVI 23.6 µM | M14 > 100 µM | MOLT-4 44.1 µM | OVCAR-3 > 100 µM | OVCAR-5 > 100 µM | SF-268 > 100 µM | SF-295 > 100 µM | SNB-19 > 100 µM | SNB-75 60.3 µM

Cc1ccc(Nc2ccc(Nc3ccc(C)cc3S(=O)(=O)O)c3c2C(=O)c2ccccc2C3=O)c(S(=O)(=O)O)c1
inactive: 786-0 > 100 µM | ACHN > 100 µM | CCRF-CEM > 100 µM | HCC 2998 > 100 µM | HCT-116 > 100 µM | K562 > 100 µM | M14 > 100 µM | MOLT-4 > 100 µM | OVCAR-3 > 100 µM | SF-268 > 100 µM | SNB-19 > 100 µM | SNB-75 94.6 µM

COC1=CC(=Nc2c(Cl)cc(Cl)cc2OC(=O)c2ccc([N+](=O)[O-])cc2)C=C(OC)C1=O
inactive: 786-0 14.8 µM | ACHN 10.7 µM | CCRF-CEM 2.87 µM | HCC 2998 18.2 µM | HCT-116 6.53 µM | HOP-92 5.62 µM | K562 2.53 µM | LOX IMVI 1.81 µM | M14 13 µM | MOLT-4 2.87 µM | OVCAR-3 8.67 µM | OVCAR-5 19.5 µM | SF-268 9.64 µM | SF-295 11.5 µM | SNB-19 16.4 µM | SNB-75 14.2 µM

N#Cc1ccccc1NC(=O)C(=O)C1NC(=S)NC1=O (configuration not stated)
inactive: 786-0 > 100 µM | ACHN > 100 µM | CCRF-CEM > 100 µM | HCC 2998 > 100 µM | HCT-116 > 100 µM | HOP-92 > 100 µM | K562 > 100 µM | LOX IMVI > 100 µM | M14 > 100 µM | MOLT-4 > 100 µM | OVCAR-3 > 100 µM | OVCAR-5 > 100 µM | SF-268 > 100 µM | SF-295 > 100 µM | SNB-19 > 100 µM | SNB-75 > 100 µM

C=CCOC(=O)C1CCC(=O)N1C(=O)C(Cl)Cl (configuration not stated)
inactive: 786-0 > 100 µM | ACHN > 100 µM | CCRF-CEM > 100 µM | HCC 2998 > 100 µM | HCT-116 > 100 µM | HOP-92 > 100 µM | K562 > 100 µM | LOX IMVI > 100 µM | M14 > 100 µM | MOLT-4 > 100 µM | OVCAR-3 > 100 µM | OVCAR-5 > 100 µM | SF-268 > 100 µM | SF-295 > 100 µM | SNB-19 > 100 µM | SNB-75 61.8 µM

O=C(CC1(O)C(=O)Nc2c(Cl)cc(Cl)cc21)c1ccccc1 (configuration not stated)
inactive: 786-0 > 100 µM | ACHN > 100 µM | HCT-116 50.5 µM | HOP-92 > 100 µM | K562 47.4 µM | LOX IMVI > 100 µM | M14 > 100 µM | MOLT-4 33.6 µM | OVCAR-3 > 100 µM | OVCAR-5 > 100 µM | SF-268 76 µM | SF-295 52.6 µM | SNB-19 > 100 µM | SNB-75 38.6 µM

CC1(C)CC(=O)c2c(oc3cc(O)c(O)cc23)C1
inactive: 786-0 26.3 µM | ACHN 31.3 µM | CCRF-CEM 9.84 µM | HCC 2998 59.4 µM | HCT-116 > 10 µM | HOP-92 36.3 µM | K562 24.7 µM | LOX IMVI 17.1 µM | M14 24.2 µM | MOLT-4 21.3 µM | OVCAR-5 15.5 µM | SF-268 24.3 µM | SF-295 43.3 µM | SNB-19 82.2 µM | SNB-75 32.8 µM
